Values of other authors, collected in patent publication US8524751B2, “4-oxadiazol-2-YL-indazoles as inhibitors of P13 kinases” (priority 2009, dated 2013).
pIC50: −log10 of the molar value. Like-named read-outs stand apart in the source and are kept apart here.

Assays:
Class I PI3-kinases = details: each of the Class I PI3-kinases

| SMILES | pIC50 (Class I PI3-kinases; Fruman et al. 1998, read-out: IC50 values against each of these PI3-kinases) | pIC50 (CK2 protein kinase) | pIC50 (Class I PI3-kinases; read-out: IC50 values against each of the various Class I PI3-kinases) |
| --- | --- | --- | --- |
| O=c1cc(N2CCOCC2)oc2c(-c3ccccc3)cccc12 [LY294002] | 4.70 to 4.82 | 5.00 to 5.30 |  |
| COC[C@H]1OC(=O)c2coc3c2[C@@]1(C)C1=C(C3=O)[C@@H]2CCC(=O)[C@@]2(C)C[C@H]1OC(C)=O [wortmannin] |  |  | 8.00 to 9.00 |
